Experimental findings from US20210038559A1, “CANNABINOIDS AND DERIVATIVES FOR PROMOTING IMMUNOGENICITY OF TUMOR AND INFECTED CELLS” (priority 2018, published 2021) are described below.

This test relates to MHC-I expression by COLO 205 cells. Put plainly: cells. Type of test: cell-based, human. The conditions noted are these: for fold induction at 35 µM: Homo sapiens, COLO 205, 48 h, read-out: Induction Fold. As to the method: A panel of synthetic cannabinoids (Cayman Chemical, #9002891) was tested for MHC class I-inducing capability in COLO 205 cells as described above. COLO 205 cells were treated with the compounds at a concentration of 35 μM and evaluated for cell surface MHC class I expression after 48 hours. Cells were harvested, stained with MHC-I mAb W6/32 (Thermo Fisher). MHC-I expression was determined by flow cytometry.

Setting [1] is: MHC-I expression, COLO 205 cells, compounds at 35 μM, 48 hours, flow cytometry (W6/32).

Where two headings read alike, the source gives them in different places.

As to `CCCCCn1cc(C(=O)Oc2cccc3ccncc23)c2ccccc21` [Example 17, isoquinolin-8-yl 1-pentyl-1H-indole-3-carboxylate], the fold induction at 35 µM under setting [1] is 4.11. `CCCCCn1cc(C(=O)Oc2ccc3ccncc3c2)c2ccccc21` [Example 274, isoquinolin-7-yl 1-pentyl-1H-indole-3-carboxylate]: the fold induction at 35 µM under setting [1] worked out at 1.52. For the compound `CCCCCn1cc(C(=O)c2ccc3ccccc3c2)c2ccccc21` [Example 259, 2-naphthalenyl(1-pentyl-1H-indol-3-yl)-methanone], under setting [1], the fold induction at 35 µM was 1.58. For the compound `CC(C)(C)C(NC(=O)c1nn(Cc2ccccc2)c2ccccc12)C(N)=O` (stereo not shown) [Example 217, N-(1-amino-3,3-dimethyl-1-oxobutan-2-yl)-1-benzyl-1H-indazole-3-carboxamide], the fold induction at 35 µM under setting [1] worked out at 1.79.

With `CCCC(F)Cn1cc(C(=O)Oc2cccc3cccnc23)c2ccccc21` (stereo not shown) [Example 83, quinolin-8-yl 1-(2-fluoropentyl)-1H-indole-3-carboxylate], the fold induction at 35 µM under setting [1] stood at 2.54. For the compound `CC1(C)C(C(=O)c2cn(CCCCCF)c3ccccc23)C1(C)C` [Example 51, (1-(5-fluoropentyl)-1H-indol-3-yl)(2,2,3,3-tetramethylcyclopropyl)methanone], the fold induction at 35 µM under setting [1] turned out to be 2.99. For the compound `CCCC(C)n1cc(C(=O)c2cccc3ccccc23)c2ccccc21` (stereo not shown) [Example 187, naphthalen-1-yl(1-(pentan-2-yl)-1H-indol-3-yl)methanone], the fold induction at 35 µM under setting [1] was 1.9. On to “(2-ethyl-1-pentyl-1H-indol-3-yl)-1-naphthalenyl-methanone [Example 154]”, for which the “Induction Fold” value came to 2.11 Fold.

Consider `CCCCCn1cc(C(=O)c2ccc(Br)c3ccccc23)c2ccccc21` [Example 205, (4-bromo-1-naphthalenyl)(1-pentyl-1H-indol-3-yl)-methanone], for which the fold induction at 35 µM under setting [1] stood at 1.86. `CCC(F)CCCn1cc(C(=O)c2cccc3ccccc23)c2ccccc21` (stereo not shown) [Example 173, (1-(4-fluorohexyl)-1H-indol-3-yl)(naphthalen-1-yl)methanone]: the fold induction at 35 µM under setting [1] was found to be 1.98. Same read-out and setting: in the case of `CCCCCn1cc(C(=O)c2cccc3ccccc23)c2ccc(OC)cc21` [Example 175, (6-methoxy-1-pentyl-1H-indol-3-yl)(naphthalen-1-yl)-methanone] it was 1.95. For the compound `CCCCCn1cc(C(=O)Nc2cccc3cccnc23)c2ccccc21` [Example 141, 1-pentyl-N-8-quinolinyl-1H-indole-3-carboxamide], the fold induction at 35 µM under setting [1] stood at 2.19. With `COc1ccccc1CC(=O)c1cn(CCC2CCCCC2)c2ccccc12` [Example 74, 1-(1-(2-cyclohexylethyl)-1H-indol-3-yl)-2-(2-methoxyphenyl)ethanone], under setting [1], the fold induction at 35 µM worked out at 2.65. On to `O=C(Oc1cccc2cnccc12)c1cn(CC2CCCCC2)c2ccccc12` [Example 162, isoquinolin-5-yl 1-(cyclohexylmethyl)-1H-indole-3-carboxylate], for which the fold induction at 35 µM under setting [1] is 2.04. In the case of `CCCn1cc(C(=O)c2cccc3ccccc23)c2ccccc21` [Example 65, 1-naphthalenyl(1-propyl-1H-indol-3-yl)-methanone], the “Induction Fold” value was 2.77 Fold. On the same count and under the same terms, in the case of `CCCCCn1cc(C(=O)c2cccc3ccccc23)cc1-c1ccccc1C` [Example 60, [5-(2-methylphenyl)-1-pentyl-1H-pyrrol-3-yl]-1-naphthalenyl-methanone] it was 2.85 Fold. As for `CCCCCn1cc(C(=O)c2cccc3cc(CC)ccc23)c2ccccc21` [Example 275, (6-ethylnaphthalen-1-yl)(1-pentyl-1H-indol-3-yl)methanone], the fold induction at 35 µM under setting [1] was 1.52. The same measure, in the same setting: under `COc1ccc(C(=O)c2c(C)n(CCN3CCOCC3)c3cc(Br)ccc23)cc1` [Example 310, [6-bromo-2-methyl-1-[2-(4-morpholinyl)ethyl]-1H-indol-3-yl](4-methoxyphenyl)-methanone] stands 1.37.

On to `CCC(C)(NC(=O)c1nn(Cc2ccc(F)cc2)c2ccccc12)C(N)=O` (single isomer, unassigned) [Example 287, N-(1-amino-2-methyl-1-oxobutan-2-yl)-1-(4-fluorobenzyl)-1H-indazole-3-carboxamide], for which the fold induction at 35 µM under setting [1] turned out to be 1.45. For the compound `CCCCC(F)Cn1cc(C(=O)c2cccc3ccccc23)c2ccccc21` (stereo not shown) [Example 207, (1-(2-fluorohexyl)-1H-indol-3-yl)(naphthalen-1-yl)methanone], the fold induction at 35 µM under setting [1] is 1.85. For `O=C(c1cccc2ccccc12)c1cn(CCCCCF)c2ccccc12` [Example 79, [1-(5-fluoropentyl)-1H-indol-3-yl]-1-naphthalenyl-methanone], the “Induction Fold” value under setting [1] amounted to 2.57 Fold.

Take `CCCCCn1cccc1C(=O)c1cccc2ccccc12` [Example 178, naphthalen-1-yl(1-pentyl-1H-pyrrol-2-yl)methanone]: the fold induction at 35 µM under setting [1] was 1.94. With `CCCCCn1cc(C(=O)c2cc(Cl)cc3ccccc23)c2ccccc21` [Example 263, (3-chloronaphthalen-1-yl)(1-pentyl-1H-indol-3-yl)methanone, hydrate], the fold induction at 35 µM under setting [1] stood at 1.56.

As for `CC(C)CCCCn1cc(C(=O)C2C(C)(C)C2(C)C)c2ccccc21` [Example 225, (1-(5-methylhexyl)-1H-indol-3-yl)(2,2,3,3-tetramethylcyclopropyl)methanone], the fold induction at 35 µM under setting [1] is 1.75. Regarding `CCCCCn1cc(Cc2cccc3ccccc23)c2ccccc21` [Example 252, 3-(1-naphthalenylmethyl)-1-pentyl-1H-indole], the “Induction Fold” value came to 1.61 Fold. Regarding `O=C(NC12CC3CC(CC(C3)C1)C2)c1cn(CCCCCF)c2ccccc12` [Example 144, 1-(5-fluoropentyl)-N-tricyclo[3.3.1.13,7] dec-1-yl-1H-indole-3-carboxamide], under setting [1], the fold induction at 35 µM was 2.17. `O=C(Nc1ccc2ccccc2c1)c1cn(CCCCCF)c2ccccc12` [Example 337, 1-(5-fluoropentyl)-N-(naphthalen-2-yl)-1H-indole-3-carboxamide]: the fold induction at 35 µM under setting [1] was determined as 1.19. Turning to `CS(=O)(=O)O.Cc1c(C(=O)c2cccc3ccccc23)c2cccc3c2n1[C@H](CN1CCOCC1)CO3` [Example 379, [(3R)-2,3-dihydro-5-methyl-3-(4-morpholinylmethyl)pyrrolo[1,2,3-de]-1,4-benzoxazin-6-yl]-1-naphthalenyl-methanone, methanesulfonate], the “Induction Fold” value was 0.21 Fold. Regarding `CCCCCn1cc(C(=O)c2cccc3ccc(CC)cc23)c2ccccc21` [Example 231, (7-ethyl-1-naphthalenyl)(1-pentyl-1H-indol-3-yl)-methanone], the fold induction at 35 µM under setting [1] turned out to be 1.72.

In the case of `CCCCCCC(C)(C)c1cc(O)cc(OCCCCCCCC(=O)NC2CC2)c1` [Example 159, N-cyclopropyl-8-[3-(1,1-dimethylheptyl)-5-hydroxyphenoxy]-octanamide], under setting [1], the fold induction at 35 µM was 2.06. On the same count and under the same terms, in the case of `O=C(Oc1cccc2cccnc12)c1cn(Cc2ccc(F)cc2)c2ccccc12` [Example 204, 1-[(4-fluorophenyl)methyl]-1H-indole-3-carboxylic acid, 8-quinolinyl ester] it was 1.87; in that of `CCCCCn1cc(C(=O)Nc2cccc3ccccc23)c2ccccc21` [Example 329, N-1-naphthalenyl-1-pentyl-1H-indole-3-carboxamide], 1.23. On the same count and under the same terms, under `NC(=O)[C@H](Cc1ccccc1)NC(=O)c1nn(CC2CCCCC2)c2ccccc12` [Example 29, N-[(1S)-2-amino-2-oxo-1-(phenylmethyl)ethyl]-1-(cyclohexylmethyl)-1H-Indazole-3-carboxamide] stands 3.41; under `O=C(Oc1ccc2cccnc2c1)c1cn(CCCCCF)c2ccccc12` [Example 12, quinolin-7-yl 1-(5-fluoropentyl)-1H-indole-3-carboxylate], 4.34.

For the compound `CC(C)[C@H](NC(=O)c1nn(Cc2cccc(F)c2)c2ccccc12)C(N)=O` [Example 221, N-[(1S)-1-(aminocarbonyl)-2-methylpropyl]-1-[(3-fluorophenyl)methyl]-1H-indazole-3-carboxamide], under setting [1], the fold induction at 35 µM came out at 1.77. Consider `CC(C)(C)C(NC(=O)c1nn(CCCCCF)c2ccccc12)C(N)=O` (stereo not shown) [Example 289, N-[1-(aminocarbonyl)-2,2-dimethylpropyl]-1-(5-fluoropentyl)-1H-indazole-3-carboxamide], for which the fold induction at 35 µM under setting [1] turned out to be 1.44.

Regarding `COc1cccc(CC(=O)c2cn(CCC3CCCCC3)c3ccccc23)c1` [Example 42, 1-(1-(2-cyclohexylethyl)-1H-indol-3-yl)-2-(3-methoxyphenyl)ethanone], the fold induction at 35 µM under setting [1] was 3.07.
